The record followed here is patent publication US8906925B2, “Pyrido[4,3-B]indoles containing rigid moieties” (Medivation Technologies, Inc., priority 2008, dated 2014).

As usually defined, the inhibition is the change of the read-out against control, counted positive when it falls.

Experiment [1] concerns the target T1, human recombinant serotonin (5-Hydroxytryptamine) 5-HT2C receptor (Homo sapiens, UniProt P28335).
T1 construct: expressed in transfected cells; host or cells: Chinese hamster ovary (CHO-K1) cells
T1 sequence (P28335 33-458): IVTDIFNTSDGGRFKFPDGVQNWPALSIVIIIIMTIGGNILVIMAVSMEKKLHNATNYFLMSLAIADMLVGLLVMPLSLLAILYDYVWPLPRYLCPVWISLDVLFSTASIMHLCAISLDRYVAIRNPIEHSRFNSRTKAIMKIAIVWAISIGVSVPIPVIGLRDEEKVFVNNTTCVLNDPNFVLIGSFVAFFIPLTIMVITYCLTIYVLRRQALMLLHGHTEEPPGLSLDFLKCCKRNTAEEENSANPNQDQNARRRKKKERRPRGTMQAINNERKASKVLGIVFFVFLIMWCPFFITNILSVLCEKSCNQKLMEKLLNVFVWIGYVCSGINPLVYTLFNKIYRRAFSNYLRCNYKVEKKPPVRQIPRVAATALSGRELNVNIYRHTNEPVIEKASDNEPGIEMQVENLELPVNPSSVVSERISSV
Kind of experiment: Serotonin 5-HT2C radioligand binding ([3H]Mesulergine). As to conditions: compound at 0.1 μM; read-out: Inhibition of ligand binding, Serotonin 5-HT2C (percent inhibition of specific binding). The method, then: Compounds of the invention were incubated with 1 nM [^3H]Mesulergine for 60 min. at 25° C. Non-specific binding was estimated in the presence of 1 μM Mianserin. Receptor proteins were filtered and washed, the filters were then counted to determine [^3H]Mesulergine specifically bound. Compounds were screened at 1 μM or lower, using 1% DMSO as vehicle. Biochemical assay results are presented as the percent inhibition of specific binding in Table 10.

For experiment [2], the target named is histamine receptor H1 (Homo sapiens, UniProt P35367). Kind of experiment: Histamine H1 radioligand binding ([3H]Pyrilamine). The following applies: for inhibition at 1 µM: read-out: Histamine Binding (1 μM) H1, percent inhibition of specific binding, 1 μM. The method, boiled down:
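Values are percent inhibition of specific [3H]pyrilamine (1.2 nM) binding with compounds at ≤1 μM (1% DMSO vehicle); 180 min incubation at 25 °C, pH 7.4 Tris buffer, on CHO-expressed human H1 receptor; 1 μM pyrilamine defined nonspecific binding, bound ligand counted after filtration.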

For experiment [3], the target named is human dopamine D2L receptor (Homo sapiens, UniProt P14416). The experiment in a line: Dopamine D2L radioligand binding ([3H]Spiperone). As to conditions: percent inhibition of specific binding, compound at 1 μM; for inhibition at 1 µM: read-out: Inhibition of ligand binding, Dopamine D2L. From the text:
Non-specific binding was estimated in the presence of […] Haloperidol. Receptor proteins were filtered and washed, the filters were then counted to determine [^3H]Spiperone specifically bound. […] Biochemical assay results are presented as the percent inhibition of specific binding in Table 9.

For experiment [4], the target named is T2, human recombinant serotonin (5-Hydroxytryptamine) 5-HT2A receptor (Homo sapiens, UniProt P28223).
T2 construct: expressed in transfected cells; host or cells: Chinese hamster ovary (CHO-K1) cells
T2 sequence (P28223 whole entry): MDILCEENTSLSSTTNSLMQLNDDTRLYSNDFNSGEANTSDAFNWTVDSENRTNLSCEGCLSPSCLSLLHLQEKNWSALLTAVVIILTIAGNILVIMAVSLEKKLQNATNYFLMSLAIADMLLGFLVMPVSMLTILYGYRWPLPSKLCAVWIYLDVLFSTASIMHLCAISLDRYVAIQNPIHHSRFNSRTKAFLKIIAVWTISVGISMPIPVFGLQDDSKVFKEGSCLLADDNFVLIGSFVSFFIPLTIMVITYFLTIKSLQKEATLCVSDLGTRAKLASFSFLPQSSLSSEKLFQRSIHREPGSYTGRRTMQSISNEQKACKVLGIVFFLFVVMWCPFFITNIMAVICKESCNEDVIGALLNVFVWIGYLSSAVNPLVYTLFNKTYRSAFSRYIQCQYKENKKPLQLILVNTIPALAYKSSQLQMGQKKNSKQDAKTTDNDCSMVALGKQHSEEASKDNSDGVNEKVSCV
The experiment in a line: Serotonin 5-HT2A radioligand binding ([3H]Ketanserin). As to conditions: read-out: Inhibition of ligand binding, Serotonin 5-HT2A (percent inhibition of specific binding), compound at 0.1 μM. The method, then:
Compounds of the invention were incubated with 0.5 nM [^3H]Ketanserin for 60 min. at 25° C. Non-specific binding was estimated in the presence of 1 μM Mianserin. Receptor proteins were filtered and washed, the filters were then counted to determine [^3H]Ketanserin specifically bound.

Experiment [5] has as its target T3, human recombinant serotonin (5-Hydroxytryptamine) 5-HT6 receptor (Homo sapiens, UniProt P50406).
T3 construct: expressed in transfected cells; host or cells: human HeLa cells
The experiment in a line: Serotonin 5-HT6 radioligand binding ([3H]LSD). As to conditions: compound at 0.1 μM; read-out: Inhibition of ligand binding, Serotonin 5-HT6 (percent inhibition of specific binding). The method, then: Compounds of the invention were incubated with 1.5 nM [3H]Lysergic acid diethylamide (LSD) for 120 min. at 37° C. […] Receptor proteins were filtered and washed, the filters were then counted to determine [3H]LSD specifically bound. Compounds were screened at 1 μM or lower, using 1% DMSO as vehicle. Biochemical assay results are presented as the percent inhibition of specific binding in Table 10.

The target in experiment [6] is human recombinant serotonin (5-Hydroxytryptamine) 5-HT7 receptor (Homo sapiens, UniProt P34969). Kind of experiment: Serotonin 5-HT7 radioligand binding ([3H]LSD). As to conditions: compound at 0.1 μM; read-out: Inhibition of ligand binding, Serotonin 5-HT7 (percent inhibition of specific binding). From the text: Receptor proteins were filtered and washed, the filters were then counted to determine [^3H]LSD specifically bound.
Sequence of human recombinant serotonin (5-Hydroxytryptamine) 5-HT7 receptor (P34969 whole entry): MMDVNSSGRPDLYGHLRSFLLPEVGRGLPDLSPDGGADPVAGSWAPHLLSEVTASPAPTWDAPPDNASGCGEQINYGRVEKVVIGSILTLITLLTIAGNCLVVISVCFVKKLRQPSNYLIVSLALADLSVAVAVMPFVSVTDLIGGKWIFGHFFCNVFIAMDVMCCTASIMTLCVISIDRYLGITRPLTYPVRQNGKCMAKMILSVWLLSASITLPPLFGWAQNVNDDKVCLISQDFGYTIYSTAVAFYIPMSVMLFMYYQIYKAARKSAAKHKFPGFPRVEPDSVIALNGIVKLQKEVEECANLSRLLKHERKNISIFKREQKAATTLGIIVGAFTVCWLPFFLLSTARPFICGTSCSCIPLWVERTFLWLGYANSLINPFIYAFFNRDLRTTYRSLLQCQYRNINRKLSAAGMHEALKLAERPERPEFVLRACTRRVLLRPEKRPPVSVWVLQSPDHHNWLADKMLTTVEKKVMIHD

Sequence of human dopamine D2L receptor (P14416 whole entry): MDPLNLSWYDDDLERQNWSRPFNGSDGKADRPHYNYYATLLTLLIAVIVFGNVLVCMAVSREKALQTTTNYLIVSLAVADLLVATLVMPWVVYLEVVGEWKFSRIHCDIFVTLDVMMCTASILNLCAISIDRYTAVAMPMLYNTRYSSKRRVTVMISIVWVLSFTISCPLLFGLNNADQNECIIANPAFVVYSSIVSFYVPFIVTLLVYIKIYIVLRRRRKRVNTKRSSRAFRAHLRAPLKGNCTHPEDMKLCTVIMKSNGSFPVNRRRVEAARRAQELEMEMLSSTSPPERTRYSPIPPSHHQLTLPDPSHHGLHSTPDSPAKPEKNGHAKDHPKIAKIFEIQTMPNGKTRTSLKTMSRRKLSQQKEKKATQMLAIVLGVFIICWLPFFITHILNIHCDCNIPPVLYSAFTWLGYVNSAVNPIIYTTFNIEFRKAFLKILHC
T3 sequence (P50406 whole entry): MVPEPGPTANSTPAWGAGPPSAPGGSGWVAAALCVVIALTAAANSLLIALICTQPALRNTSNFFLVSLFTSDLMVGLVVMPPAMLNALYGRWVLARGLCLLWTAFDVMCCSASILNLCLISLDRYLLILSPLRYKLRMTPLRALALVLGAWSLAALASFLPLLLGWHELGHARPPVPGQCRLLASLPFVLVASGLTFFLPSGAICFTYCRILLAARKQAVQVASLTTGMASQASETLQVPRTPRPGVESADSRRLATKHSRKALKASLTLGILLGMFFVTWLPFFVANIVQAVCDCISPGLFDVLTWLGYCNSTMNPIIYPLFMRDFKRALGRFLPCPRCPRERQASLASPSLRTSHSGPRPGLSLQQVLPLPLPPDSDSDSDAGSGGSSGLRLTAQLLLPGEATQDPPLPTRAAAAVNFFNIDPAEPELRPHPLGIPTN
Sequence of histamine receptor H1 (P35367 whole entry): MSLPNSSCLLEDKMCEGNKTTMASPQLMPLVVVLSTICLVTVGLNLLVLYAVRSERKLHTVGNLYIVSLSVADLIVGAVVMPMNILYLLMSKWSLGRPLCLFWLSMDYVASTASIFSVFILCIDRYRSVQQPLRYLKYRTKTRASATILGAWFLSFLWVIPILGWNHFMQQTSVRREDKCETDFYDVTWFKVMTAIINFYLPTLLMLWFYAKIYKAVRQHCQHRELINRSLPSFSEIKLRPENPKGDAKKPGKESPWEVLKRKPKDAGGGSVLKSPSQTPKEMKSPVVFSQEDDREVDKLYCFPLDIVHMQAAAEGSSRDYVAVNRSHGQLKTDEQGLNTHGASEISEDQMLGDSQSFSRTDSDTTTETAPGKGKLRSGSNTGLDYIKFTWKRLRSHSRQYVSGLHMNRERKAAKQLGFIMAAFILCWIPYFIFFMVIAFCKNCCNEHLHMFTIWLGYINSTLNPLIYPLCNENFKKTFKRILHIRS

As to `C/C(=C\n1c2c(c3cc(C)ccc31)CN(C)CC2)c1ccc(F)cc1F` [Compound 276, (E)-5-(2-(2,4-difluorophenyl)prop-1-enyl)-2,8-dimethyl-2,3,4,5-tetrahydro-1H-pyrido[4,3-b]indole], the inhibition at 0.1 µM in experiment [1] is 96%; in experiment [4] it was 99%; in experiment [5], 81%; in experiment [6], 86%. Further, the inhibition at 1 µM in experiment [2] was 63%; in experiment [3] it was 82%.
Regarding `CCC(O)(Cn1c2c(c3cc(Cl)ccc31)CN(C)CC2)c1ccncc1` (stereo not drawn) [Compound 195, 1-(8-chloro-2-methyl-3,4-dihydro-1H-pyrido[4,3-b]indol-5(2H)-yl)-2-(pyridin-4-yl)butan-2-ol], the inhibition at 0.1 µM in experiment [1] turned out to be 43%; in experiment [4], 62%; in experiment [5] it was 32%; in experiment [6], 18%. The inhibition at 1 µM in experiment [2] was found to be 20%; in experiment [3], 17%.
Consider `CC(=Cn1c2c(c3cc(Cl)ccc31)CN(C)CC2)c1ccc(F)cc1F` (stereo in doubt) [Compound 107, 8-chloro-5-((Z)-2-(2,4-difluorophenyl)prop-1-enyl)-2,3,4,5-tetrahydro-2-methyl-1H-pyrido[4,3-b]indole], for which the inhibition at 0.1 µM was determined as 95% in experiment [1], 96% in experiment [4], 97% in experiment [5] and 95% in experiment [6]. Moreover, the “Histamine Binding (1 μM) H1, percent inhibition of specific binding” value in experiment [2] (1 μM) worked out at 88%. In addition, the “Inhibition of ligand binding, Dopamine D2L” value in experiment [3] (1 µM) was found to be 72%.
`C/C(=C\n1c2c(c3ccc(Cl)cc31)CN(C)CC2)c1ccc(C)nc1` [Compound 253, (E)-7-chloro-2-methyl-5-(2-(6-methylpyridin-3-yl)prop-1-enyl)-2,3,4,5-tetrahydro-1H-pyrido[4,3-b]indole]: the inhibition at 0.1 µM in experiment [1] was 49%; in experiment [4], 85%; in experiment [5], 9%; in experiment [6], 54%. The inhibition at 1 µM in experiment [2] was found to be 20%; in experiment [3] it was 22%.
With `C/C(=C\n1c2c(c3cc(Cl)ccc31)CN(C)C(C)C2)c1ccncc1` (stereo not drawn) [Compound 275, (E)-8-chloro-2,3-dimethyl-5-(2-(pyridin-4-yl)prop-1-enyl)-2,3,4,5-tetrahydro-1H-pyrido[4,3-b]indole], the inhibition at 0.1 µM stood at 98% in experiment [1], 93% in experiment [4], 101% in experiment [5] and 72% in experiment [6]. Besides, the inhibition at 1 µM in experiment [2] was found to be 39%; in experiment [3], 92%.
`CC(C)/C(=C/n1c2c(c3cc(Cl)ccc31)CN(C)CC2)c1ccncc1` [Compound 265, (Z)-8-chloro-2-methyl-5-(3-methyl-2-(pyridin-4-yl)but-1-enyl)-2,3,4,5-tetrahydro-1H-pyrido[4,3-b]indole]: the inhibition at 0.1 µM in experiment [1] turned out to be 89%; in experiment [4], 96%; in experiment [5], 97%; in experiment [6], 52%. Further, the inhibition at 1 µM in experiment [2] came out at 22%; in experiment [3], 73%.
As for `C/C(=C\n1c2c(c3cc(C)ccc31)CN(C)CC2)c1ccncn1` [Compound 279, (E)-2,8-dimethyl-5-(2-(pyrimidin-4-yl)prop-1-enyl)-2,3,4,5-tetrahydro-1H-pyrido[4,3-b]indole], the inhibition at 0.1 µM in experiment [1] came to 70%; in experiment [4], 75%; in experiment [5], 90%; in experiment [6], 53%. Further, the inhibition at 1 µM in experiment [2] was determined as 21%; in experiment [3], 69%.
`Cc1ccc2c(c1)c1c(n2CC(C)(O)c2cnccn2)CCN(C)C1` (stereo not drawn) [Compound 200, 1-(2,8-dimethyl-3,4-dihydro-1H-pyrido[4,3-b]indol-5(2H)-yl)-2-(pyrazin-2-yl)propan-2-ol]: the inhibition at 0.1 µM came to 17% in experiment [1], 30% in experiment [4], 20% in experiment [5] and 31% in experiment [6]. In addition, the inhibition at 1 µM stood at 45% in experiment [2] and 6% in experiment [3].
Turning to `COc1ccc([C@@](C)(O)Cn2c3c(c4cc(C)ccc42)CN(C)CC3)cc1` [Compound 192, 1-(2,8-dimethyl-3,4-dihydro-1H-pyrido[4,3-b]indol-5(2H)-yl)-2-(4-methoxyphenyl)propan-2-ol], the inhibition at 0.1 µM in experiment [1] was 81%; in experiment [4], 91%; in experiment [5], 38%; in experiment [6], 78%. In addition, the results for the inhibition at 1 µM in experiment [2] and in experiment [3] were 61% and 34%, respectively.
Take `C/C(=C\n1c2c(c3ccccc31)CN(C)CC2)c1ccc(C)nc1` [Compound 254, (E)-2-methyl-5-(2-(6-methylpyridin-3-yl)prop-1-enyl)-2,3,4,5-tetrahydro-1H-pyrido[4,3-b]indole]: the inhibition at 0.1 µM in experiment [1] turned out to be 52%; in experiment [4], 65%; in experiment [5], 15%; in experiment [6], 63%. In addition, the figures for the inhibition at 1 µM in experiment [2] and in experiment [3] were 7% and 11%, respectively.
Regarding `C/C(=C\n1c2c(c3cc(Cl)c(Cl)cc31)CN(C)CC2)c1ccc(F)cc1` [Compound 248, (E)-7,8-dichloro-5-(2-(4-fluorophenyl)prop-1-enyl)-2-methyl-2,3,4,5-tetrahydro-1H-pyrido[4,3-b]indole], the inhibition at 0.1 µM was determined as 92% in experiment [1], 108% in experiment [4], 101% in experiment [5] and 57% in experiment [6]. Besides, the inhibition at 1 µM in experiment [2] turned out to be 90%; in experiment [3] it was 95%.
Turning to `C/C(=C\n1c2c(c3cc(C(F)(F)F)ccc31)CN(C)CC2)c1ccncc1` [Compound 249, (E)-2-methyl-5-(2-(pyridin-4-yl)prop-1-enyl)-8-(trifluoromethyl)-2,3,4,5-tetrahydro-1H-pyrido[4,3-b]indole], the inhibition at 0.1 µM in experiment [1] turned out to be 60%; in experiment [4], 90%; in experiment [5], 98%; in experiment [6], 70%. For the same compound, the results for the inhibition at 1 µM in experiment [2] and in experiment [3] were 48% and 93%, respectively.
Consider `C/C(=C\n1c2c(c3cc(C)ccc31)CN(C)CC2)c1ccccn1` [Compound 278, (E)-2,8-dimethyl-5-(2-(pyridin-2-yl)prop-1-enyl)-2,3,4,5-tetrahydro-1H-pyrido[4,3-b]indole], for which the inhibition at 0.1 µM in experiment [1] was found to be 91%; in experiment [4] it was 88%; in experiment [5], 69%; in experiment [6], 79%. The inhibition at 1 µM is 24% in experiment [2] and 51% in experiment [3].
With `CCN1CCc2c(c3cc(C)ccc3n2/C=C(\C)c2ccncc2)C1` [Compound 269, (E)-2-ethyl-8-methyl-5-(2-(pyridin-4-yl)prop-1-enyl)-2,3,4,5-tetrahydro-1H-pyrido[4,3-b]indole], the inhibition at 0.1 µM in experiment [1] was determined as 55%; in experiment [4] it was 87%; in experiment [5], 102%; in experiment [6], 51%. Moreover, the inhibition at 1 µM is -2% in experiment [2] and 91% in experiment [3].
